Experimental data as given in patent US20250282799A1, “SUBSTITUTED PYRIDO[4,3-d]PYRIMIDINES AS KRAS MODULATORS” (Alterome Therapeutics, Inc., priority 2023, published 2025).

Tested on: KRAS G12V dependent lung adenocarcinoma cell line, NCI-H441
Experiment: Cellular pERK (Thr202/Tyr204) FRET/HTRF assay
Assay type: cell-based
Settings: Homo sapiens
Procedure, shortened: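 Using a mix-and-read HTRF kit, phospho-ERK (Thr202/Tyr204) was detected in NCI-H441 lysates following 1 hr compound incubation at 37 °C, 5% CO2. Cells had been seeded overnight beforehand, and IC50 was derived by curve fitting.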

[1] = NCI-H441, cellular pERK (Thr202/Tyr204) HTRF, NCI-H441 cells
[2] = NCI-H441, cellular pERK HTRF, NCI-H441 (KRAS G12V) cells

Row | Compound | IC50 [1] [nM] | IC50 [2] [nM]
1 | [2H]C([2H])(F)Oc1c(F)ccc2cccc(-c3ncc4c(N5CCCC[C@H]6[C@H](F)[C@H]65)nc(OC[C@]56CC(=C(F)F)CN5CCC65CC5)nc4c3F)c12 [Example 413, (R)-6′-(difluoromethylene)-7a′-(((8-fluoro-7-(7-fluoro-8-(fluoromethoxy-d2)naphthalen-1-yl)-4-((1S,7R,8S)-8-fluoro-2-azabicyclo[5.1.0]octan-2-yl)pyrido[4,3-d]pyrimidin-2-yl)oxy)methyl)hexahydrospiro [cyclopropane-1,1′-pyrrolizine]] | 50 to 500 | –
2 | C#Cc1c(F)ccc2cc(N)cc(-c3ncc4c(N5CCOC[C@H]6[C@H](F)[C@H]65)nc(OC[C@]56C[C@@H](F)CN5CCC6=O)nc4c3F)c12 [Example 414, (6R,7aS)-7a-(((7-(3-amino-8-ethynyl-7-fluoronaphthalen-1-yl)-8-fluoro-4-((1S,7S,8S)-8-fluoro-5-oxa-2-azabicyclo[5.1.0]octan-2-yl)pyrido[4,3-d]pyrimidin-2-yl)oxy)methyl)-6-fluorohexahydro-1H-pyrrolizin-1-one] | < 50 | –
3 | [2H]C([2H])(Oc1nc(N2CCOC[C@H]3[C@H](F)[C@H]32)c2cc(C(F)(F)F)c(-c3cccc4ccccc34)c(F)c2n1)[C@@]12CCCN1C[C@H](F)C2 [Example 415, (1S,7S,8S)-8-fluoro-2-(8-fluoro-2-(((2R,7aS)-2-fluorotetrahydro-1H-pyrrolizin-7a(5H)-yl)methoxy-d2)-7-(naphthalen-1-yl)-6-(trifluoromethyl)quinazolin-4-yl)-5-oxa-2-azabicyclo[5.1.0]octane] | 500 to 10000 | –
4 | [2H]C([2H])(Oc1nc(N2CCCC[C@H]3[C@H](F)[C@H]32)c2cnc(-c3cc(N)cc4ccc(Cl)c(C#C)c34)c(F)c2n1)[C@@]12CCCN1[C@H](C)[C@H](F)C2 [Example 416, 6-Chloro-5-ethynyl-4-(8-fluoro-2-(((2R,3R,7aS)-2-fluoro-3-methyltetrahydro-1H-pyrrolizin-7a(5H)-yl)methoxy-d2)-4-((1S,7R,8S)-8-fluoro-2-azabicyclo[5.1.0]octan-2-yl)pyrido[4,3-d]pyrimidin-7-yl)naphthalen-2-amine] | < 50 | –
5 | [2H]C([2H])(Oc1nc(N2CCCC[C@H]3[C@H](F)[C@H]32)c2cnc(-c3cc(N)cc4ccc(C)c(C#C)c34)c(F)c2n1)[C@@]12CCCN1[C@H](C)[C@H](F)C2 [Example 417, 5-Ethynyl-4-(8-fluoro-2-(((2R,3R,7aS)-2-fluoro-3-methyltetrahydro-1H-pyrrolizin-7a(5H)-yl)methoxy-d2)-4-((1S,7R,8S)-8-fluoro-2-azabicyclo[5.1.0]octan-2-yl)pyrido[4,3-d]pyrimidin-7-yl)-6-methylnaphthalen-2-amine] | < 50 | –
6 | [2H]C([2H])(Oc1nc(N2CCOC[C@H]3[C@H](F)[C@H]32)c2cc(C#N)c(-c3cc(N)cc4ccc(F)c(C#C)c34)c(C)c2n1)[C@@]12CCCN1C[C@H](F)C2 [Example 422, 7-(3-amino-8-ethynyl-7-fluoronaphthalen-1-yl)-4-((1S,7S,8S)-8-fluoro-5-oxa-2-azabicyclo[5.1.0]octan-2-yl)-2-(((2R,7aS)-2-fluorotetrahydro-1H-pyrrolizin-7a(5H)-yl)methoxy-d2)-8-methylquinazoline-6-carbonitrile] | < 50 | –
7 | C#Cc1c(F)ccc2cccc(-c3ncc4c(N5CCCC[C@H]6[C@H](F)[C@H]65)nc(OC[C@]56CC(=C)CN5CCC65CC5)nc4c3F)c12 [Example 423, (R)-7a′-(((7-(8-Ethynyl-7-fluoronaphthalen-1-yl)-8-fluoro-4-((1S,7R,8S)-8-fluoro-2-azabicyclo[5.1.0]octan-2-yl)pyrido[4,3-d]pyrimidin-2-yl)oxy)methyl)-6′-methylenehexahydrospiro[cyclopropane-1,1′-pyrrolizine]] | < 50 | –
8 | C=C1CN2CCC3(CC3)[C@@]2(COc2nc(N3CCCC[C@H]4[C@H](F)[C@H]43)c3cnc(-c4cc(N)cc(Cl)c4C(F)(F)F)c(F)c3n2)C1 [Example 424, 3-chloro-5-(8-fluoro-4-((1S,7R,8S)-8-fluoro-2-azabicyclo[5.1.0]octan-2-yl)-2-(((R)-6′-methylenetetrahydrospiro[cyclopropane-1,1′-pyrrolizin]-7a′(5′H)-yl)methoxy)pyrido[4,3-d]pyrimidin-7-yl)-4-(trifluoromethyl)aniline] | < 50 | –
9 | C#Cc1c(F)ccc2cc(N)cc(-c3ncc4c(N5CCOC[C@H]6[C@H](F)[C@H]65)nc(OC[C@@]56CCCN5CC(=C)C6)nc4c3C)c12 [Example 425, 5-ethynyl-6-fluoro-4-(4-((1S,7S,8S)-8-fluoro-5-oxa-2-azabicyclo[5.1.0]octan-2-yl)-8-methyl-2-(((S)-2-methylenetetrahydro-1H-pyrrolizin-7a(5H)-yl)methoxy)pyrido[4,3-d]pyrimidin-7-yl)naphthalen-2-amine] | < 50 | –
10 | C#Cc1c(F)ccc2cc(N)cc(-c3ncc4c(N5CCOC[C@H]6[C@H](F)[C@H]65)nc(OC[C@@]56CCCN5C/C(=C/F)C6)nc4c3C)c12 [Example 426, 5-ethynyl-6-fluoro-4-(4-((1S,7S,8S)-8-fluoro-5-oxa-2-azabicyclo[5.1.0]octan-2-yl)-2-(((S,E)-2-(fluoromethylene)tetrahydro-1H-pyrrolizin-7a(5H)-yl)methoxy)-8-methylpyrido[4,3-d]pyrimidin-7-yl)naphthalen-2-amine] | < 50 | –
11 | C#Cc1c(F)ccc2cc(N)cc(-c3ncc4c(N5CCOC[C@H]6[C@H](F)[C@H]65)nc(OC[C@@]56CCCN5C/C(=C\F)C6)nc4c3C)c12 [Example 427, 5-ethynyl-6-fluoro-4-(4-((1S,7S,8S)-8-fluoro-5-oxa-2-azabicyclo[5.1.0]octan-2-yl)-2-(((S,Z)-2-(fluoromethylene)tetrahydro-1H-pyrrolizin-7a(5H)-yl)methoxy)-8-methylpyrido[4,3-d]pyrimidin-7-yl)naphthalen-2-amine] | < 50 | –
12 | C#Cc1c(F)ccc2cc(N)cc(-c3ncc4c(N5CCOC[C@H]6[C@H](F)[C@H]65)nc(OC[C@@]56CCCN5CC(=C(F)F)C6)nc4c3C)c12 [Example 428, 4-(2-(((S)-2-(difluoromethylene)tetrahydro-1H-pyrrolizin-7a(5H)-yl)methoxy)-4-((1S,7S,8S)-8-fluoro-5-oxa-2-azabicyclo[5.1.0]octan-2-yl)-8-methylpyrido[4,3-d]pyrimidin-7-yl)-5-ethynyl-6-fluoronaphthalen-2-amine] | < 50 | –
13 | C#Cc1c(F)ccc2cc(N)cc(-c3ncc4c(N5CCOC[C@H]6[C@H](F)[C@H]65)nc(OC[C@]56CC(=C)CN5CCC65CC5)nc4c3C)c12 [Example 429, 5-ethynyl-6-fluoro-4-(4-((1S,7S,8S)-8-fluoro-5-oxa-2-azabicyclo[5.1.0]octan-2-yl)-8-methyl-2-(((R)-6′-methylenetetrahydrospiro[cyclopropane-1,1′-pyrrolizin]-7a′(5′H)-yl)methoxy)pyrido[4,3-d]pyrimidin-7-yl)naphthalen-2-amine] | < 50 | –
14 | C#Cc1c(F)ccc2cc(N)cc(-c3ncc4c(N5CCOC[C@H]6[C@H](F)[C@H]65)nc(OC[C@]56C/C(=C\F)CN5CCC65CC5)nc4c3C)c12 [Example 430, 5-ethynyl-6-fluoro-4-(4-((1S,7S,8S)-8-fluoro-5-oxa-2-azabicyclo[5.1.0]octan-2-yl)-2-(((R,E)-6-(fluoromethylene)tetrahydrospiro[cyclopropane-1,1′-pyrrolizin]-7a′(5′H)-yl)methoxy)-8-methylpyrido[4,3-d]pyrimidin-7-yl)naphthalen-2-amine] | < 50 | –
15 | C#Cc1c(F)ccc2cc(N)cc(-c3ncc4c(N5CCOC[C@H]6[C@H](F)[C@H]65)nc(OC[C@]56C/C(=C/F)CN5CCC65CC5)nc4c3C)c12 [Example 431, 5-Ethynyl-6-fluoro-4-(4-((1S,7S,8S)-8-fluoro-5-oxa-2-azabicyclo[5.1.0]octan-2-yl)-2-(((R,Z)-6′-(fluoromethylene)tetrahydrospiro[cyclopropane-1,1′-pyrrolizin]-7a′(5′H)-yl)methoxy)-8-methylpyrido[4,3-d]pyrimidin-7-yl)naphthalen-2-amine] | < 50 | –
16 | [2H]C([2H])(Oc1nc(N2CCOC[C@H]3[C@H](F)[C@H]32)c2cnc(-c3cc(N)cc4ccc(F)c(C#C)c34)c(C)c2n1)[C@@]12CCCN1CC(=C)C2 [Example 436, 5-Ethynyl-6-fluoro-4-(4-((1S,7S,8S)-8-fluoro-5-oxa-2-azabicyclo[5.1.0]octan-2-yl)-8-methyl-2-(((S)-2-methylenetetrahydro-1H-pyrrolizin-7a(5H)-yl)methoxy-d2)pyrido[4,3-d]pyrimidin-7-yl)naphthalen-2-amine] | – | < 50
17 | C#Cc1c(F)ccc2cc(N)cc(-c3ncc4c(N5CCOC[C@H]6[C@H](F)[C@H]65)nc(OC[C@]56CC(=C(F)F)CN5CCC65CC5)nc4c3C)c12 [Example 437, 4-(2-(((R)-6′-(difluoromethylene)tetrahydrospiro [cyclopropane-1,1′-pyrrolizin]-7a′(5′H)-yl)methoxy)-4-((1S,7S,8S)-8-fluoro-5-oxa-2-azabicyclo[5.1.0]octan-2-yl)-8-methylpyrido[4,3-d]pyrimidin-7-yl)-5-ethynyl-6-fluoronaphthalen-2-amine] | – | < 50
18 | [2H]C([2H])(Oc1nc(N2CCOC[C@H]3[C@H](F)[C@H]32)c2cnc(-c3cc(N)cc4ccc(F)c(C#C)c34)c(C)c2n1)[C@]12CC(=C)CN1CCC21CC1 [Example 442, 5-Ethynyl-6-fluoro-4-(4-((1S,7S,8S)-8-fluoro-5-oxa-2-azabicyclo[5.1.0]octan-2-yl)-8-methyl-2-(((R)-6′-methylenetetrahydrospiro[cyclopropane-1,1′-pyrrolizin]-7a′(5′H)-yl)methoxy-d2)pyrido[4,3-d]pyrimidin-7-yl)naphthalen-2-amine] | – | < 50
